Assays:
[1] = system: Renal Cancer subpanel; assay: NCI-60 screen, subpanel; details: Homo sapiens
[2] = system: Breast cancer subpanel; assay: NCI-60 screen, subpanel; details: Homo sapiens
[3] = system: MDA-MB-31/ATCC (Breast cancer); assay: NCI-60 screen (SRB, 48 h); details: Homo sapiens
[4] = system: MDA-MB-468 (Breast cancer); assay: cells; details: Homo sapiens
[5] = system: MOLT-4 (Leukemia); assay: NCI-60 screen (SRB, 48 h); details: Homo sapiens
[6] = system: SK-OV-3 (Ovarian cancer); assay: NCI-60 screen (SRB, 48 h); details: Homo sapiens
[7] = system: HOP-62 (NSC lung cancer); assay: NCI-60 screen (SRB, 48 h); details: Homo sapiens
[8] = system: MCF7 (Breast cancer); assay: NCI-60 screen (SRB, 48 h); details: Homo sapiens
[9] = system: CCRF-CEM (Leukemia); assay: NCI-60 screen (SRB, 48 h); details: Homo sapiens
[10] = system: OVCAR-3 (Ovarian cancer); assay: cells; details: Homo sapiens
[11] = system: SNB-19 (CNS cancer); assay: NCI-60 screen (SRB, 48 h); details: Homo sapiens
[12] = system: Melanoma subpanel; assay: NCI-60 screen, subpanel; details: Homo sapiens
[13] = system: HCC-2998 (Colon cancer); assay: NCI-60 screen (SRB, 48 h); details: Homo sapiens
[14] = system: NCI-H460 (NSC lung cancer); assay: NCI-60 screen (SRB, 48 h); details: Homo sapiens
[15] = system: 786-0 (Renal cancer); assay: NCI-60 screen (SRB, 48 h)
[16] = system: COLO 205 (Colon cancer); assay: NCI-60 screen (SRB, 48 h); details: Homo sapiens
[17] = system: OVCAR-5 (Ovarian cancer); assay: NCI-60 screen (SRB, 48 h); details: Homo sapiens
[18] = system: EKVX (NSC lung cancer); assay: NCI-60 screen (SRB, 48 h); details: Homo sapiens
[19] = system: Prostate cancer subpanel; assay: NCI-60 screen, subpanel; details: Homo sapiens
[20] = system: NCI-H226 (NSC lung cancer); assay: NCI-60 screen (SRB, 48 h); details: Homo sapiens
[21] = system: SK-MEL-28 (Melanoma); assay: NCI-60 screen (SRB, 48 h); details: Homo sapiens
[22] = system: MDA-MB-435 (Melanoma); assay: NCI-60 screen (SRB, 48 h); type: cell-based
[23] = system: SK-MEL-2 (Melanoma); assay: NCI-60 screen (SRB, 48 h); details: Homo sapiens
[24] = system: MALME-3M (Melanoma); assay: NCI-60 screen (SRB, 48 h); details: Homo sapiens
[25] = system: Leukemia subpanel; assay: cells; details: Homo sapiens
[26] = system: SK-MEL-5 (Melanoma); assay: NCI-60 screen (SRB, 48 h); details: Homo sapiens
[27] = system: SNB-75 (CNS cancer); assay: NCI-60 screen (SRB, 48 h); details: Homo sapiens
[28] = system: U251 (CNS cancer); assay: NCI-60 screen (SRB, 48 h); details: Homo sapiens

## C=C(C)[C@@H]1CC[C@]2(C)[C@H](C=CC3=C4C[C@@](C)(CO)CC[C@]4(C)CC[C@]32C)[C@@]1(C)CCCN [Compound 20]
[1]; 48 h, read-out: TGI MG_MID
  IC (TGI): 3.07 µM
[1]; read-out: GI50 MG_MID
  GI50: 1.61 µM
[1]; read-out: LC50 MG_MID
  CC50: 5.86 µM
[2]; 48 h, read-out: TGI MG_MID
  IC (TGI): 3.41 µM
[2]; read-out: GI50 MG_MID
  GI50: 1.68 µM
[2]; read-out: LC50 MG_MID
  CC50: 6.94 µM
[3]
  GI50: 1.77 µM
[3]; 48 h, read-out: TGI
  IC (TGI): 3.27 µM
[3]; read-out: LC50
  CC50: 6.02 µM
[4]; MDA-MB-468
  GI50: 1.58 µM
[4]; MDA-MB-468, 48 h, read-out: TGI
  IC (TGI): 3.2 µM
[4]; MDA-MB-468, read-out: LC50
  CC50: 6.47 µM
[5]; MOLT-4
  GI50: 1.78 µM
[5]; MOLT-4, 48 h, read-out: TGI
  IC (TGI): 3.86 µM
[6]; SK-OV-3
  GI50: 1.72 µM
[6]; SK-OV-3, 48 h, read-out: TGI
  IC (TGI): 3.17 µM
[6]; SK-OV-3, read-out: LC50
  CC50: 5.85 µM
[7]; HOP-62
  GI50: 1.98 µM
[7]; HOP-62, 48 h, read-out: TGI
  IC (TGI): 4.04 µM
[8]; MCF7
  GI50: 1.6 µM
[8]; MCF7, 48 h, read-out: TGI
  IC (TGI): 3.4 µM
[8]; MCF7, read-out: LC50
  CC50: 7.23 µM
[9]
  GI50: 2.12 µM
[9]; 48 h, read-out: TGI
  IC (TGI): 5.56 µM
[9]; read-out: LC50
  CC50: > 100 µM
[10]; OVCAR-3
  GI50: 1.48 µM
[10]; OVCAR-3, 48 h, read-out: TGI
  IC (TGI): 2.85 µM
[10]; OVCAR-3, read-out: LC50
  CC50: 5.46 µM
[11]; SNB-19
  GI50: 1.75 µM
[11]; SNB-19, 48 h, read-out: TGI
  IC (TGI): 3.17 µM
[11]; SNB-19, read-out: LC50
  CC50: 5.74 µM
[12]; 48 h, read-out: TGI MG_MID
  IC (TGI): 3.22 µM
[12]; read-out: GI50 MG_MID
  GI50: 1.71 µM
[12]; read-out: LC50 MG_MID
  CC50: 6.09 µM
[13]; HCC 2998
  GI50: 0.79 µM
[13]; HCC 2998, 48 h, read-out: TGI
  IC (TGI): 2.14 µM
[13]; HCC 2998, read-out: LC50
  CC50: 4.97 µM
[14]; NCI-H460
  GI50: 1.71 µM
[14]; NCI-H460, 48 h, read-out: TGI
  IC (TGI): 3.33 µM
[14]; NCI-H460, read-out: LC50
  CC50: 6.49 µM
[15]; 786-0, 1 dose 10 µM
  Growth % of the Most Sensitive Cell Lines: −97.28%
[15]; Homo sapiens, 786-0
  GI50: 1.68 µM
[15]; Homo sapiens, 786-0, 48 h, read-out: TGI
  IC (TGI): 3.44 µM
[15]; Homo sapiens, 786-0, read-out: LC50
  CC50: 7.04 µM
[16]; COLO 205
  GI50: 1.49 µM
[16]; COLO 205, 48 h, read-out: TGI
  IC (TGI): 3.23 µM
[16]; COLO 205, read-out: LC50
  CC50: 6.96 µM
[17]; OVCAR-5
  GI50: 1.71 µM
[17]; OVCAR-5, 48 h, read-out: TGI
  IC (TGI): 3.06 µM
[17]; OVCAR-5, read-out: LC50
  CC50: 5.57 µM
[18]
  GI50: 1.6 µM
[18]; 48 h, read-out: TGI
  IC (TGI): 3.1 µM
[18]; read-out: LC50
  CC50: 6.01 µM
[19]; 48 h, read-out: TGI MG_MID
  IC (TGI): 3.22 µM
[19]; read-out: GI50 MG_MID
  GI50: 1.71 µM
[20]; NCI-H226
  GI50: 1.85 µM
[20]; NCI-H226, 48 h, read-out: TGI
  IC (TGI): 3.66 µM
[21]; SK-MEL-28
  GI50: 1.82 µM
[21]; SK-MEL-28, 48 h, read-out: TGI
  IC (TGI): 3.25 µM
[21]; SK-MEL-28, read-out: LC50
  CC50: 5.8 µM
[22]; Homo sapiens, MDA-MB-435
  GI50: 1.78 µM
[22]; Homo sapiens, MDA-MB-435, 48 h, read-out: TGI
  IC (TGI): 3.2 µM
[22]; Homo sapiens, MDA-MB-435, read-out: LC50 (the source's name)
  CC50: 5.76 µM
[22]; MDA-MB-435, 1 dose 10 µM
  Growth % of the Most Sensitive Cell Lines: −96.77%
[23]; SK-MEL-2
  GI50: 1.92 µM
[23]; SK-MEL-2, 48 h, read-out: TGI
  IC (TGI): 3.58 µM
[23]; SK-MEL-2, read-out: LC50
  CC50: 6.66 µM
[24]
  GI50: 1.46 µM
[24]; 48 h, read-out: TGI
  IC (TGI): 2.91 µM
[24]; read-out: LC50
  CC50: 5.82 µM
[25]; 48 h, read-out: TGI MG_MID
  IC (TGI): 4.52 µM
[25]; read-out: GI50 MG_MID
  GI50: 1.82 µM
[25]; read-out: LC50 MG_MID
  CC50: > 100 µM
[26]; SK-MEL-5
  GI50: 1.72 µM
[26]; SK-MEL-5, 48 h, read-out: TGI
  IC (TGI): 3.19 µM
[27]; SNB-75
  GI50: 1.53 µM
[27]; SNB-75, 48 h, read-out: TGI
  IC (TGI): 2.97 µM
[27]; SNB-75, read-out: LC50
  CC50: 5.77 µM
[28]; U-251
  GI50: 1.64 µM
[28]; U-251, 48 h, read-out: TGI
  IC (TGI): 3.32 µM
[28]; U-251, read-out: LC50
  CC50: 6.72 µM

— publication PMC7914897, “Cytotoxic Potential of a-Azepano- and 3-Amino-3,4-SeCo-Triterpenoids” (International Journal of Molecular Sciences, 2021)
